Like-named read-outs stand apart in the source and are kept apart here.

The text below walks through data of paper PMC10447463, “Data-mining unveils structure–property–activity correlation of viral infectivity enhancing self-assembling peptides” (Nature Communications, 2023).

Data set [1] is described as follows: β-sheet content by ATR-FT-IR. Type of data set: physicochemical. The following applies: for b -sheet / %: Fig. S7 panel A, β-sheet content by ATR-FT-IR. In outline: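 First, PNF was ultrafiltered (3 kDa MWCO, 16200 x g, 45 min, 4 °C). Next, filtrate and unfiltered sample were lyophilized and taken up in DMSO. Then fluorescamine was added for 20 min at RT before reading ex 365/em 470 nm. β-sheet: ATR FT-IR of lyophilized 1 mg/mL PNF.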

The format of data set [2] is physicochemical. The following applies: for Fibril / Fibril Formation / Fibril: TEM; for Fibril / Fibril Formation: 1 mg/mL, uranyl acetate stain, qualitative. On the set-up: key to Fibril / Fibril Formation / TEM 2cat / Fibril: 1 = fibrils present; 0 non-fibrillar structures.
Data set [3] is classed as physicochemical. The following applies: for ThT Cat. / ThT-Fluorescence (categorical): ThT-active if fluorescence at least twice the control. In outline: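 Fibrils (1 mg/mL solution) were mixed with 50 µM ThT in PBS for 15 min at RT, and fluorescence was read at λex 440/λem 488 nm against a PBS blank, as a triplicate mean ± SD. Zeta potential came from electrophoretic mobility (Smoluchowski) after 1 d aggregation at 1 mg/mL in PBS pH 7.4, diluted into 1 mM KCl.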

Setting [4] is: 1 = fibrils present, 0 = non-fibrillar.
Where [5] appears, read: 1 = fibrils present, 0 = non-fibrillar structures.
Where [6] appears, read: category: fibrils present or non-fibrillar.
[7] abbreviates: ThT fluorescence category, 1 if Rel. ThT >2.
[8] abbreviates: FigS12 panel A, fibril category by TEM.

Regarding KIKIKIKIYYYY, the “b -sheet / %” value in data set [1] is given as 56.7%. This substance also registered a beta sheet in data set [1] (peptides with TEM 2cat 0) of 57. The “TEM 2cat” value in data set [2] (Fig S10 panel D) and in data set [2] (setting [6]) was 0 each time. In data set [2], the “Fibril / Fibril Formation” value is reported as 0. Further, the Fibril in data set [2] (setting [4]) and in data set [2] (setting [5]) was 0 throughout. In data set [3] (Fig S10 panel D), the “Tht category (> 2 to blank = +)” value was 0 (ThT-inactive (N-Fold <2)). Moreover, in data set [3] (ThT category, 1 if Rel. ThT >2), the “ThT Cat,” value is 0 (ThT-inactive (N-Fold <2)). The “ThT Cat.” value in data set [3] (setting [7]) is 0 (ThT-inactive (N-Fold <2)). Besides, the “ThT Cat. / ThT-Fluorescence (categorical)” value (“ThT Cat. / ThT-Fluorescence” for short) in data set [3] was 0 (ThT-inactive (N-Fold <2)).
Turning to KIKIQIAMWQ, in data set [1], the “b -sheet / %” value was determined as 37.48%. For the same substance, the “TEM 2cat” value in data set [2] (Fig S10 panel D) and in data set [2] (setting [6]) was 1 in each case. Further, in data set [2], the “Fibril / Fibril Formation” value turned out to be 1. Further, the Fibril in data set [2] (setting [4]) and in data set [2] (setting [5]) was 1 in each case. In data set [3] (Fig S10 panel D), the “Tht category (> 2 to blank = +)” value is 1 (ThT. Cat is 1, if Rel. ThT >2). The “ThT Cat,” value in data set [3] (ThT category, 1 if Rel. ThT >2) is reported as 1 (ThT. Cat is 1, if Rel. ThT >2). For the same substance, the “ThT Cat.” value in data set [3] (setting [7]) is 1 (ThT. Cat is 1, if Rel. ThT >2). Further, the “ThT Cat. / ThT-Fluorescence” value in data set [3] is 1 (ThT. Cat is 1, if Rel. ThT >2).
On to KIKIQIN, for which the “b -sheet / %” value in data set [1] was found to be 41.82%. The “TEM 2cat” value in data set [2] (Fig S10 panel D) and in data set [2] (setting [6]) was 1 each time. Moreover, in data set [2], the “Fibril / Fibril Formation” value was 1. The Fibril in data set [2] (setting [4]) and in data set [2] (setting [5]) was 1 throughout. In data set [3] (Fig S10 panel D), the “Tht category (> 2 to blank = +)” value was 0 (ThT-inactive (N-Fold <2)). The “ThT Cat,” value in data set [3] (ThT category, 1 if Rel. ThT >2) is 0 (ThT-inactive (N-Fold <2)). In data set [3] (setting [7]), the “ThT Cat.” value is 0 (ThT-inactive (N-Fold <2)). For the same substance, in data set [3], the “ThT Cat. / ThT-Fluorescence” value is 0 (ThT-inactive (N-Fold <2)).
On to KIKIQINAWQ, for which the “b -sheet / %” value in data set [1] was found to be 27.74%. Besides, the “TEM 2cat” value in data set [2] (Fig S10 panel D) and in data set [2] (setting [6]) was 1 in each case. Further, the “Fibril / Fibril Formation” value in data set [2] worked out at 1. The Fibril in data set [2] (setting [4]) and in data set [2] (setting [5]) was 1 in each case. In data set [3] (Fig S10 panel D), the “Tht category (> 2 to blank = +)” value is on record as 1 (ThT. Cat is 1, if Rel. ThT >2). The “ThT Cat,” value in data set [3] (ThT category, 1 if Rel. ThT >2) is 1 (ThT. Cat is 1, if Rel. ThT >2). Besides, the “ThT Cat.” value in data set [3] (setting [7]) is 1 (ThT. Cat is 1, if Rel. ThT >2). Besides, the “ThT Cat. / ThT-Fluorescence” value in data set [3] is given as 1 (ThT. Cat is 1, if Rel. ThT >2).
For KIKIQINMAQ, the “b -sheet / %” value in data set [1] was 45.78%. Further, the “TEM 2cat” value in data set [2] (Fig S10 panel D) and in data set [2] (setting [6]) was 1 each time. Also, the “Fibril / Fibril Formation” value in data set [2] came to 1. Also, the Fibril in data set [2] (setting [4]) and in data set [2] (setting [5]) was 1 throughout. For the same substance, the “Tht category (> 2 to blank = +)” value in data set [3] (Fig S10 panel D) is 0 (ThT-inactive (N-Fold <2)). In data set [3] (ThT category, 1 if Rel. ThT >2), the “ThT Cat,” value was 0 (ThT-inactive (N-Fold <2)). In addition, the “ThT Cat.” value in data set [3] (setting [7]) is 0 (ThT-inactive (N-Fold <2)). In data set [3], the “ThT Cat. / ThT-Fluorescence” value is 0 (ThT-inactive (N-Fold <2)).
In the case of KIKIQINMW, the “b -sheet / %” value in data set [1] is 45.5%. Besides, the “TEM 2cat” value in data set [2] (Fig S10 panel D) and in data set [2] (setting [6]) was 1 in each case. In addition, in data set [2], the “Fibril / Fibril Formation” value was found to be 1. The Fibril in data set [2] (setting [4]) and in data set [2] (setting [5]) was 1 in each case. For the same substance, in data set [3] (Fig S10 panel D), the “Tht category (> 2 to blank = +)” value is on record as 1 (ThT. Cat is 1, if Rel. ThT >2). The “ThT Cat,” value in data set [3] (ThT category, 1 if Rel. ThT >2) is listed as 1 (ThT. Cat is 1, if Rel. ThT >2). In addition, in data set [3] (setting [7]), the “ThT Cat.” value is recorded as 1 (ThT. Cat is 1, if Rel. ThT >2). In addition, the “ThT Cat. / ThT-Fluorescence” value in data set [3] was 1 (ThT. Cat is 1, if Rel. ThT >2).
KIKIQINMWA: the “b -sheet / %” value in data set [1] worked out at 49.91%. Besides, the “TEM 2cat” value in data set [2] (Fig S10 panel D) and in data set [2] (setting [6]) was 1 in each case. In addition, in data set [2], the “Fibril / Fibril Formation” value came to 1. Further, the Fibril in data set [2] (setting [4]) and in data set [2] (setting [5]) was 1 each time. The “Tht category (> 2 to blank = +)” value in data set [3] (Fig S10 panel D) is 0 (ThT-inactive (N-Fold <2)). In data set [3] (ThT category, 1 if Rel. ThT >2), the “ThT Cat,” value was 0 (ThT-inactive (N-Fold <2)). The “ThT Cat.” value in data set [3] (setting [7]) was 0 (ThT-inactive (N-Fold <2)). Moreover, the “ThT Cat. / ThT-Fluorescence” value in data set [3] was 0 (ThT-inactive (N-Fold <2)).
Regarding KIKQIIN, the “b -sheet / %” value in data set [1] came to 37.69%. Further, the “TEM 2cat” value in data set [2] (Fig S10 panel D) and in data set [2] (setting [8]) was 0 each time. Further, the Fibril in data set [2] (FigS12 panel B), in data set [2] (setting [4]) and in data set [2] (setting [5]) was 0 in each case. Moreover, the “Fibril / Fibril Formation” value in data set [2] came to 0. Besides, the “Tht category (> 2 to blank = +)” value in data set [3] (Fig S10 panel D) and in data set [3] (FigS12 panel A) was 0 (ThT-inactive (N-Fold <2)) in each case. The “ThT Cat,” value is 0 (ThT-inactive (N-Fold <2)) in data set [3] (FigS12 panel B) and 0 (ThT-inactive (N-Fold <2)) in data set [3] (ThT category, 1 if Rel. ThT >2). In data set [3] (setting [7]), the “ThT Cat.” value is 0 (ThT-inactive (N-Fold <2)). The “ThT Cat. / ThT-Fluorescence” value in data set [3] is 0 (ThT-inactive (N-Fold <2)).
Turning to KIRGKFEKED, the “b -sheet / %” value in data set [1] turned out to be 28.67%. Moreover, the “TEM 2cat” value in data set [2] (Fig S10 panel D) and in data set [2] (setting [8]) was 0 in each case. In addition, the Fibril in data set [2] (FigS12 panel B), in data set [2] (setting [4]) and in data set [2] (setting [5]) was 0 throughout. For the same substance, the “Fibril / Fibril Formation” value in data set [2] is given as 0. Moreover, the “Tht category (> 2 to blank = +)” value in data set [3] (Fig S10 panel D) is reported as 1 (ThT. Cat is 1, if Rel. ThT >2); in data set [3] (FigS12 panel A), 1 (ThT. Cat is 1, if Rel. ThT >2). Besides, the “ThT Cat,” value in data set [3] (FigS12 panel B) is 1 (ThT. Cat is 1, if Rel. ThT >2); in data set [3] (ThT category, 1 if Rel. ThT >2), 1 (ThT. Cat is 1, if Rel. ThT >2). Besides, the “ThT Cat.” value in data set [3] (ThT category, 1 if Rel. ThT >2) is reported as 1 (ThT. Cat is 1, if Rel. ThT >2). Also, the “ThT Cat. / ThT-Fluorescence” value in data set [3] is given as 1 (ThT. Cat is 1, if Rel. ThT >2).
Consider KKFQKKFQ, for which the “b -sheet / %” value in data set [1] is 40.421%. Moreover, the “TEM 2cat” value in data set [2] (Fig S10 panel D) and in data set [2] (setting [8]) was 0 in each case. Moreover, the Fibril in data set [2] (FigS12 panel B), in data set [2] (setting [4]) and in data set [2] (setting [5]) was 0 throughout. The “Fibril / Fibril Formation” value in data set [2] is given as 0. The “Tht category (> 2 to blank = +)” value in data set [3] (Fig S10 panel D) and in data set [3] (FigS12 panel A) was 0 (ThT-inactive (N-Fold <2)) each time. Moreover, the “ThT Cat,” value in data set [3] (FigS12 panel B) was 0 (ThT-inactive (N-Fold <2)); in data set [3] (ThT category, 1 if Rel. ThT >2), 0 (ThT-inactive (N-Fold <2)). The “ThT Cat.” value in data set [3] (ThT category, 1 if Rel. ThT >2) is 0 (ThT-inactive (N-Fold <2)). The “ThT Cat. / ThT-Fluorescence” value in data set [3] was 0 (ThT-inactive (N-Fold <2)).
With KNDKND, the “b -sheet / %” value in data set [1] came to 43.2531%. The “TEM 2cat” value in data set [2] (Fig S10 panel D) and in data set [2] (setting [8]) was 0 in each case. Besides, the Fibril in data set [2] (FigS12 panel B), in data set [2] (setting [4]) and in data set [2] (setting [5]) was 0 in each case. In data set [2], the “Fibril / Fibril Formation” value came out at 0. The “Tht category (> 2 to blank = +)” value in data set [3] (Fig S10 panel D) and in data set [3] (FigS12 panel A) was 0 (ThT-inactive (N-Fold <2)) throughout. The “ThT Cat,” value in data set [3] (FigS12 panel B) was 0 (ThT-inactive (N-Fold <2)); in data set [3] (ThT category, 1 if Rel. ThT >2), 0 (ThT-inactive (N-Fold <2)). Further, in data set [3] (ThT category, 1 if Rel. ThT >2), the “ThT Cat.” value was 0 (ThT-inactive (N-Fold <2)). The “ThT Cat. / ThT-Fluorescence” value in data set [3] is 0 (ThT-inactive (N-Fold <2)).
